Literature values, collected in PMC13064256, “Integrative preclinical strategy for pharmacokinetic profiling and candidate selection of 3-hydroxypropanamidines: a promising antimalarial class” (Malaria Journal, 2026).

Parameters: method as in PMID 31898492

Clint in HLMs: 26.9 µL/min/mg
Structure (SMILES): CCCCN(CCCC)CCC(O)c1cc2c(Cl)cc(Cl)cc2c2cc(C(F)(F)F)ccc12 (stereo not shown) [halofantrine]
